According to patent US20220288102A1, “Compounds for Hepatitis B Treatment” (Agency for Science, Technology and Research, priority 2019, published 2022):
“Also recorded” adds a separate entry of the source.

Assays:
HBsAg [1] = assay: HBsAg inhibition in HepG2 2.15 cells (primary screen and dose response, HBsAg ELISA); format: cell-based, Hepatitis B virus; conditions: for HBsAg inhibition, dose response curve / percentage inhibition curve (HBsAg): 8-point dose response in HepG2 2.15 cells starting from 30 μM; for IC50: Hepatitis B virus, HepG2.2.15, read-out: IC50 (HBsAg); for percentage inhibition curve (HBsAg): FIG. 4
Protocol: HBsAg ELISA. HBsAg ELISA was carried out as described in detail below. In brief 25 μL of the cell culture supernatant was collected at the indicated timepoints on the figure legends and was used for the HBsAg ELISA.
Procedure • 1. Coat microwells with 25 ul per well of mouse monoclonal [86C] diluted in coating buffer (6 ug per ml; 300 ul from 0.2 mg/ml stock in 10 ml of coating buffer)(150 ng/well). • 2. Seal plate and incubate overnight at 4° C. • 3. Aspirate wells and wash 3 times with 50 ul/well of wash buffer. • 4. After last wash, invert plate and blot on c-towel and spin 1000 rpm for 1 min to remove residual solution. • 5. Block plates with 75 ul/well of assay diluent. Incubate at RT for 2 hrs. • 6. Aspirate/wash as in step 3. • 7. Prepare 4000 ng/ml of active HBS Ag (Adw) full length protein in assay diluent and titrate 2 fold for 12 different decreasing concentration. Pipette 25 ul of sample and different dilutions of active HepB surface Ag (Adw) into appropriate wells. Seal plate and incubate for 2 hrs at RT. • 8. Aspirate/wash as in step 3 but with total 5 washes. • 9. Add 25 ul of working detector (Rabbit polyclonal to HBS-Biotin (4500 ng/ml)+SAv-HRP (1:1000) reagent to each well. Seal plate and incubate for 1 hr at RT. • 10. Aspirate/wash as in step 3 but for 7 washes. • 11. Add 25 ul of TMB substrate solution to each well and incubate plate for 30 minutes at RT in dark. • 12. Add 25 ul of stop solution (1N HCl) to each well, read absorbance at 450 nm within 30 minutes of stopping reaction.
In block 205, a primary screen of the library of compounds was done in HepG2 2.15 cells to determine the inhibitory activity of HBsAg (the surface antigen of the Hepatitis B virus which indicates hepatitis B infection in patients) and parallel cytotoxicity. In block 310, the hit compounds (“HITS” or “HITs”) were determined by identifying compounds with certain criteria. […] For example, the compounds may be tested at 3 μM (data shown herein) or 10 μM.
A secondary screen of the hit compounds was done to determine the EC50 of the hit compounds.

extracellular HBV DNA = assay: Extracellular HBV DNA (qPCR) in infected primary human hepatocytes; format: cell-based, Hepatitis B virus; conditions: HBVcc-infected primary human hepatocytes, compound treatment 3 μM
Protocol: HBV extracellular DNA was extracted from 200 μL of cell culture supernatant collected at the end of the experiment as indicated on the figure legends. DNA was extracted according to the QIAamp DNA Mini Kit (Qiagen).
(§1) FIG. 8 briefly describes an experimental model of the method to infect the cells with HBV, treatment with drugs, and subsequent analysis. The primary human hepatocytes were seeded in a 96 well plate coated with Collagen I (30 minutes at room temperature) with DMSO (1%) induction. The next day, the cells were infected with purified HBV with a multiplicity of infection (MOI) of 500 (i.e. the ratio of the infection agent (HBV) to the infection target (cell)) in media containing 4% polyethylene glycol 8000 (PEG-8000) and 1% DMSO (day 0). On the next day, the infected cells were washed vigorously to remove excess virus by washing 3 times without removing the spent media completely and treated with the test compounds at 3 μM concentration (day 1). In addition. the supernatant was collected at day 3 and the cells pulsed again with the test compounds at 3 μM concentration. At day 5, the supernatant was collected for analysis with the HBsAg ELISA and finally at day 8 cells were lysed for DNA isolation, eHBV analysis and cccDNA analysis. This allows comparison of the effects of the compounds on day 3 and day 5. Some of the cells were fixed, permeabalized and stained with antibody to HBcAg to determine HBcAg levels via IFA.

[2] = Cytotoxicity in HepG2 2.15 cells; format: cell-based; conditions: human, Hep G2 2.15 cells
Protocol: In block 205, a primary screen of the library of compounds was done in HepG2 2.15 cells to determine the inhibitory activity of HBsAg (the surface antigen of the Hepatitis B virus which indicates hepatitis B infection in patients) and parallel cytotoxicity. In block 310, the hit compounds (“HITS” or “HITs”) were determined by identifying compounds with certain criteria. […] In the preliminary screen, the compounds are typically tested at higher concentrations than expected and may lead to greater than desired cytotoxicity (>20%). For example, the compounds may be tested at 3 μM (data shown herein) or 10 μM. However, the compound was subsequently further tested in a proper dose response manner (described below) to determine whether the drug is able to elicit the antiviral response (decrease in HBsAg levels) with low cytotoxicity (i.e. <20% cytotoxicity).
From the primary high throughput screen of 151 epigenetic modulators in the SelleckChem compound library at a 3 μM concentration, 16 hit compounds were identified to have good antiviral activity resulting in high HBsAg loss (>50%) and low cytotoxicity (<20%) and the results are shown in FIG. 3.
A secondary screen of the hit compounds was done to determine the EC50 of the hit compounds. […] Some of the other compounds were determined to be less suitable. […] The MI-2 EC50 is very high and appers to be dependent on the toxic nature of the compound and was not a viable option. The percentage inhibition curve of MC1568, OF-1 and tofacitinib in FIG. 4 are close to 0 in the vertical axis and may not be readily seen in FIG. 4. It may be seen that the secondary screen is able to filter off unsuitable compounds from the primary screen.

HBV in HepAD38.7 cells = assay: Secondary validation of the drug screen in HepAD38.7 cells; format: cell-based, Hepatitis B virus
Protocol: In block 215, a secondary screen was conducted to determine the EC50 values (the effective concentration to obtain 50% activity or inhibition) of the HIT compounds. In block 220, the hit compounds were tested in HEPAD38.7 HBV live infection models to determine the robustness of the hit compounds, i.e. whether the hit compounds are effective. In block 225, the novel lead compounds or scaffold structures are identified and mechanism of action (MOA) studies for target engagement were developed. In block 230, the lead compound is optimised and validated or if the compound is known but for a different non-biological use or biological target, the compound may be repurposed for the inhibition of HBV. In block 235, the efficacy of the compound was determined in animal models.
A secondary validation of the drug screen in HepAD38.7 cells and a functional gene knockdown using Lipofectamine 3000 reagent was also performed. The genes selected were the annotated targets of the selected epigenetic inhibitors.

[3] = test system: primary human hepatocytes; assay: Cytotoxicity (CCK-8) in infected primary human hepatocytes; format: cell-based; conditions: 3 μM
HBsAg [4] = assay: HBsAg ELISA in HBV-infected primary human hepatocytes; format: cell-based, Hepatitis B virus; conditions: 3 μM
Protocol: HBV infection of PHH. Primary human hepatocytes were infected at […] in presence of 4% PEG8000 and 1% DMSO as described earlier. The samples, cell lysate for RNA and or DNA as well as cell culture supernatant were harvested at indicated timepoints on figure legends.
Procedure • 1. […] Seal plate and incubate overnight at 4° C. • 3. […] Block plates with 75 ul/well of assay diluent. Incubate at RT for 2 hrs. • 6. Aspirate/wash as in step 3. • 7.
as §1

cccDNA = cccDNA (qPCR) in infected primary human hepatocytes; format: cell-based, Hepatitis B virus; conditions: HBVcc-infected primary human hepatocytes, compound treatment 3 μM
Protocol: The DNA is isolated from the cellular lysate, purification with Plasmid safe ATP-dependent DNAse is performed to remove non-circular DNAs (relaxed circular DNA). cccDNA levels are then measure using a Taqman-probe based quantitative polymerase chain reaction.
as §1, with “Some of the cells were fixed, permeabalized and stained with antibody to HBcAg to determine HBcAg levels via IFA.” left out

SMILES: Cc1cc(Nc2nc(N[C@@H](C)c3ccc(F)cc3)c(C#N)cc2F)n[nH]1 [AZ960]
- HBsAg inhibition, dose response curve (HBsAg [1]): suitable dose response curve
- IC50 (HBsAg [1]): 0.193 µM
- extracellular HBV DNA levels in the cell culture supernatant (extracellular HBV DNA): reduces extracellular HBV DNA levels more than Entecavir
- IC50 [2]: 0.231 µM

SMILES: COc1cc(Nc2ncc3c(n2)-c2ccc(Cl)cc2C(c2c(F)cccc2OC)=NC3)ccc1C(=O)O [Alisertib]
- HBsAg inhibition, dose response curve (HBsAg [1]): not as efficacious
- antiviral effect in HepAD38 cells (HBV in HepAD38.7 cells): did not show an effect

SMILES: Cc1nc(N)sc1-c1ccnc(Nc2ccc(N3CCOCC3)cc2)n1 [CYC-116]
- HBsAg inhibition, dose response curve (HBsAg [1]): suitable dose response curve
- IC50 (HBsAg [1]): 0.42 µM
- extracellular HBV DNA levels in the cell culture supernatant (extracellular HBV DNA): reduces extracellular HBV DNA levels more than Entecavir
- IC50 [2]: 1.49 µM
- cytotoxicity level (CCK-8) [3]: higher cytotoxicity levels
- HBsAg levels (HBsAg [4]; Day 3 and Day 5): reduces HBsAg levels more than Entecavir; also recorded: lowest HBsAg levels
- cccDNA levels in the cell lysate (cccDNA): lowest measured cccDNA levels
- antiviral effect in HepAD38 cells (HBV in HepAD38.7 cells): significantly higher antiviral activity

SMILES: C=C1[C@H](CO)[C@@H](O)C[C@@H]1n1cnc2c(=O)[nH]c(N)nc21 [Entecavir]
- cytotoxicity level (CCK-8) [3]: low toxicity levels

SMILES: Cn1c(/C=C/C(=O)NO)ccc1/C=C/C(=O)c1cccc(F)c1 [MC-1568]
- percentage inhibition curve (HBsAg) (HBsAg [1]): ~0%

SMILES: CCCc1cc2c(N3CCN(C4=NCC(C)(C)S4)CC3)ncnc2s1 [MI-2]
- EC50 (HBsAg [1]; secondary screen, HepG2 2.15 cells): very high

SMILES: CC(C)c1cc2c(N3CCN(C4=NCC(C)(C)S4)CC3)ncnc2s1 [MI-3]
- HBsAg inhibition, dose response curve (HBsAg [1]): suitable dose response curve
- IC50 (HBsAg [1]): 1.12 µM
- IC50 [2]: 4.37 µM

SMILES: CCCCN(Cc1ccc(C(=O)NO)cc1)C(=O)Nc1ccccc1 [Nexturastat A]
- HBsAg inhibition, dose response curve (HBsAg [1]): suitable dose response curve
- IC50 (HBsAg [1]): 0.98 µM
- IC50 [2]: 3.58 µM
- HBsAg levels (HBsAg [4]; Day 3 and Day 5): reduces HBsAg levels more than Entecavir
- antiviral effect in HepAD38 cells (HBV in HepAD38.7 cells): significantly higher antiviral activity

SMILES: COc1cc2c(cc1NS(=O)(=O)c1ccc(Br)cc1C)n(C)c(=O)n2C [OF-1]
- percentage inhibition curve (HBsAg) (HBsAg [1]): ~0%

SMILES: CCS(=O)(=O)c1cccc(-c2cc(C(=O)NC3CCN(C)CC3)c(C)c3[nH]c4ncc(C)cc4c23)c1 [TAK-901]
- HBsAg inhibition, dose response curve (HBsAg [1]): suitable dose response curve
- IC50 (HBsAg [1]): 0.4 µM
- extracellular HBV DNA levels in the cell culture supernatant (extracellular HBV DNA): reduces extracellular HBV DNA levels more than Entecavir
- IC50 [2]: 11 µM
- cytotoxicity level (CCK-8) [3]: higher cytotoxicity levels
- HBsAg levels (HBsAg [4]; Day 3 and Day 5): reduces HBsAg levels more than Entecavir
- cccDNA levels in the cell lysate (cccDNA): lowest measured cccDNA levels
- antiviral effect in HepAD38 cells (HBV in HepAD38.7 cells): significantly higher antiviral activity

SMILES: C[C@@H]1CCN(C(=O)CC#N)C[C@@H]1N(C)c1ncnc2[nH]ccc12 [Tofacitinib]
- percentage inhibition curve (HBsAg) (HBsAg [1]): ~0%

SMILES: CN1CCc2c(c3ccccc3n2Cc2ccc(C(=O)NO)cc2)C1.Cl [Tubastatin A HCl, Tubastatin A hydrochloride salt]
- HBsAg inhibition, dose response curve (HBsAg [1]): suitable dose response curve
- IC50 (HBsAg [1]): 2 µM
- IC50 [2]: 7.21 µM
- HBsAg levels (HBsAg [4]; Day 3 and Day 5, hydrochloride salt): reduces HBsAg levels more than Entecavir; also recorded: lowest HBsAg levels
- antiviral effect in HepAD38 cells (HBV in HepAD38.7 cells): significantly higher antiviral activity
